Assay results published in patent US11612603B1, “3-triazolyl methyl-1,3,5-triazine-2,4-dione compounds and preparation method and application thereof” (priority 2022, dated 2023).
pIC50: −log10 of the molar value.

Experiments:
SARS-CoV-2 3CL^pro = SARS-CoV-2 3CL^pro (Severe acute respiratory syndrome coronavirus 2 (2019-nCoV) (SARS-CoV-2), UniProt P0DTD1); experiment: biochemical; conditions: for pIC50: 3CL^pro FRET; for inhibition at 0.0001 µM: Conc 0.1 nM; for inhibition at 0.0001 µM / inhibition at 0.001 µM / inhibition at 0.005 µM / inhibition at 0.01 µM / inhibition at 0.02 µM / inhibition at 0.03 µM / inhibition at 0.05 µM / inhibition at 0.1 µM / inhibition at 0.5 µM / inhibition at 1 µM: read-out: Inhibitory activity on 3CL^pro (inhibition rate); for inhibition at 0.001 µM: Conc 1 nM; for inhibition at 0.005 µM: Conc 5 nM; for inhibition at 0.01 µM: Conc 10 nM; for inhibition at 0.02 µM: Conc 20 nM; for inhibition at 0.03 µM: Conc 30 nM; for inhibition at 0.05 µM: Conc 50 nM; for inhibition at 0.1 µM: Conc 100 nM; for inhibition at 0.5 µM: Conc 500 nM; for inhibition at 1 µM: Conc 1000 nM
A549 cells = experiment: In vitro cytotoxicity, MTT method, A549 cells; format: cell-based; conditions: for A549 cell viability: 24 h, MTT
Experimental: (§1) HepG2, HEK293 and A549 cells were taken in logarithmic growth phase, digested with trypsin to prepare cell suspensions. The cell density was adjusted to 5×10^4 cells/mL, inoculating 180 μL per well in a sterile 96-well cell culture plate, incubating for 24 h at 37° C. in a 5% CO2 incubator. After the cells were attached to the bottom of the well plate, 20 μL of the drug solutions in a concentration gradient were added to each well, and 6 duplicate wells were set up in parallel, including blank group (no cells, no compounds) and control groups (no compounds). After incubating for 24 h at 37° C. in a 5% CO2 constant temperature incubator, 20 μL of 5 g/L MTT solution was added to each well for 4 h. After the incubation, the culture medium in the wells was gently aspirated, 100 μL of DMSO was added to each well, and the cells were shaken at low speed for 10 min on a shaker to fully dissolve the crystals to calculate cell viability. Cell viability (%)=(Sample Group GD Value−Blank Group GD Value)/(Control Group GD Value−Blank Group GD Value)

HEK293 cells = experiment: In vitro cytotoxicity, MTT method, HEK293 cells; format: cell-based; conditions: for HEK293 cell viability: 24 h, MTT
Experimental: as §1

HepG2 cells = experiment: In vitro cytotoxicity, MTT method, HepG2 cells; format: cell-based; conditions: for HEPG2 cell viability: 24 h, MTT
Experimental: as §1

Question: What does the source list for `Cn1cc2cc(/N=c3\[nH]c(=O)n(Cc4cnn[nH]4)c(=O)n3Cc3ccc(C(F)(F)F)cc3)c(Cl)cc2n1` [Compound 12]?
Answer: pIC50 (SARS-CoV-2 3CL^pro): 6.75; inhibition at 0.0001 µM (SARS-CoV-2 3CL^pro): 0.76%; inhibition at 0.001 µM (SARS-CoV-2 3CL^pro): 2.33%; inhibition at 0.005 µM (SARS-CoV-2 3CL^pro): 5.73%; inhibition at 0.01 µM (SARS-CoV-2 3CL^pro): 8.52%; inhibition at 0.02 µM (SARS-CoV-2 3CL^pro): 12.1%; inhibition at 0.03 µM (SARS-CoV-2 3CL^pro): 16.5%; inhibition at 0.05 µM (SARS-CoV-2 3CL^pro): 21.2%; inhibition at 0.1 µM (SARS-CoV-2 3CL^pro): 37.2%; inhibition at 0.5 µM (SARS-CoV-2 3CL^pro): 68.7%; inhibition at 1 µM (SARS-CoV-2 3CL^pro): 88.6%; A549 cell viability (A549 cells; 1.5625 nM): 98.52%; A549 cell viability (A549 cells; 3.125 nM): 97.34%; A549 cell viability (A549 cells; 6.25 nM): 96.55%; A549 cell viability (A549 cells; 12.5 nM): 97.32%; A549 cell viability (A549 cells; 25 nM): 96.21%; A549 cell viability (A549 cells; 50 nM): 98.03%; A549 cell viability (A549 cells; 100 nM): 96.61%; A549 cell viability (A549 cells; 200 nM): 94.13%; A549 cell viability (A549 cells; 400 nM): 90.13%; A549 cell viability compared with positive drugs (A549 cells; at 12.5 nM and lower): higher than that of PF-07321332 and S-217622; toxicity on A549 cells compared with positive drugs (A549 cells; at 400 nM and 200 nM): slightly higher than that of PF-07321332 and S-217622; HEK293 cell viability (HEK293 cells; 1.5625 nM): 93.67%; HEK293 cell viability (HEK293 cells; 3.125 nM): 93.03%; HEK293 cell viability (HEK293 cells; 6.25 nM): 92.31%; HEK293 cell viability (HEK293 cells; 12.5 nM): 90.69%; HEK293 cell viability (HEK293 cells; 25 nM): 84.22%; HEK293 cell viability (HEK293 cells; 50 nM): 82.91%; HEK293 cell viability (HEK293 cells; 100 nM): 81.24%; HEK293 cell viability (HEK293 cells; 200 nM): 80.57%; HEK293 cell viability (HEK293 cells; 400 nM): 78.23%; HEK293 cell viability compared with positive drugs (HEK293 cells; at 12.5 nM and lower): higher than that of PF-07321332 and S-217622; toxicity on HEK293 cells compared with positive drugs (HEK293 cells; at 400 nM and 200 nM): slightly higher than that of PF-07321332 and S-217622; HEPG2 cell viability (HepG2 cells; 1.5625 nM): 95.73%; HEPG2 cell viability (HepG2 cells; 3.125 nM): 95.07%; HEPG2 cell viability (HepG2 cells; 6.25 nM): 93.31%; HEPG2 cell viability (HepG2 cells; 12.5 nM): 90.22%; HEPG2 cell viability (HepG2 cells; 25 nM): 88.36%; HEPG2 cell viability (HepG2 cells; 50 nM): 86.83%; HEPG2 cell viability (HepG2 cells; 100 nM): 86.63%; HEPG2 cell viability (HepG2 cells; 200 nM): 81.38%; HEPG2 cell viability (HepG2 cells; 400 nM): 76.67%; HepG2 cell viability compared with positive drugs (HepG2 cells; at 12.5 nM and lower): higher than that of PF-07321332 and S-217622; toxicity on HepG2 cells compared with positive drugs (HepG2 cells; at 400 nM and 200 nM): slightly higher than that of PF-07321332 and S-217622

Question: How did the pIC50 (SARS-CoV-2 3CL^pro) turn out when `Cn1cc2cc(/N=c3\[nH]c(=O)n(Cc4cnn[nH]4)c(=O)n3Cc3cc(F)c(F)cc3F)c(Cl)cc2n1` [Compound 1] was run?
Answer: 7.03

Question: What about the inhibition at 0.0001 µM (SARS-CoV-2 3CL^pro) of the same compound?
Answer: 1.68%

Question: And the inhibition at 0.001 µM (SARS-CoV-2 3CL^pro)?
Answer: 2.35%

Question: And the inhibition at 0.005 µM (SARS-CoV-2 3CL^pro)?
Answer: 7.62%

Question: What about the inhibition at 0.01 µM (SARS-CoV-2 3CL^pro) of the same compound?
Answer: 10.9%

Question: What about the inhibition at 0.02 µM (SARS-CoV-2 3CL^pro) of the same compound?
Answer: 15.2%

Question: And the inhibition at 0.03 µM (SARS-CoV-2 3CL^pro)?
Answer: 20.8%

Question: What about the inhibition at 0.05 µM (SARS-CoV-2 3CL^pro) of the same compound?
Answer: 26.2%

Question: What about the inhibition at 0.1 µM (SARS-CoV-2 3CL^pro) of the same compound?
Answer: 59.3%

Question: And the inhibition at 0.5 µM (SARS-CoV-2 3CL^pro)?
Answer: 82.5%

Question: What about the inhibition at 1 µM (SARS-CoV-2 3CL^pro) of the same compound?
Answer: 96.2%

Question: What about the A549 cell viability (A549 cells; 1.5625 nM) of the same compound?
Answer: 99.46%

Question: What about the A549 cell viability (A549 cells; 3.125 nM) of the same compound?
Answer: 98.65%

Question: What about the A549 cell viability (A549 cells; 6.25 nM) of the same compound?
Answer: 98.82%

Question: What about the A549 cell viability (A549 cells; 12.5 nM) of the same compound?
Answer: 98.93%

Question: And the A549 cell viability (A549 cells; 25 nM)?
Answer: 98.71%

Question: What about the A549 cell viability (A549 cells; 50 nM) of the same compound?
Answer: 98.76%

Question: What about the A549 cell viability (A549 cells; 100 nM) of the same compound?
Answer: 98.69%

Question: And the A549 cell viability (A549 cells; 200 nM)?
Answer: 95.01%

Question: What about the A549 cell viability (A549 cells; 400 nM) of the same compound?
Answer: 93.02%

Question: And the “inhibitory rate on A549 cells compared with positive drugs” value (A549 cells; at any concentration)?
Answer: lower than that of PF-07321332 and S-217622

Question: What about the HEK293 cell viability (HEK293 cells; 1.5625 nM) of the same compound?
Answer: 99.03%

Question: What about the HEK293 cell viability (HEK293 cells; 3.125 nM) of the same compound?
Answer: 96.70%

Question: What about the HEK293 cell viability (HEK293 cells; 6.25 nM) of the same compound?
Answer: 94.02%

Question: What about the HEK293 cell viability (HEK293 cells; 12.5 nM) of the same compound?
Answer: 89.50%

Question: What about the HEK293 cell viability (HEK293 cells; 25 nM) of the same compound?
Answer: 86.03%

Question: And the HEK293 cell viability (HEK293 cells; 50 nM)?
Answer: 88.49%

Question: What about the HEK293 cell viability (HEK293 cells; 100 nM) of the same compound?
Answer: 84.87%

Question: And the HEK293 cell viability (HEK293 cells; 200 nM)?
Answer: 83.54%

Question: What about the HEK293 cell viability (HEK293 cells; 400 nM) of the same compound?
Answer: 81.17%

Question: And the “inhibitory rate on HEK293 cells compared with positive drugs” value (HEK293 cells; at any concentration)?
Answer: lower than that of PF-07321332 and S-217622

Question: What about the HEPG2 cell viability (HepG2 cells; 1.5625 nM) of the same compound?
Answer: 97.09%

Question: What about the HEPG2 cell viability (HepG2 cells; 3.125 nM) of the same compound?
Answer: 96.29%

Question: What about the HEPG2 cell viability (HepG2 cells; 6.25 nM) of the same compound?
Answer: 97.83%

Question: What about the HEPG2 cell viability (HepG2 cells; 12.5 nM) of the same compound?
Answer: 95.39%

Question: And the HEPG2 cell viability (HepG2 cells; 25 nM)?
Answer: 90.35%

Question: And the HEPG2 cell viability (HepG2 cells; 50 nM)?
Answer: 88.09%

Question: What about the HEPG2 cell viability (HepG2 cells; 100 nM) of the same compound?
Answer: 87.72%

Question: And the HEPG2 cell viability (HepG2 cells; 200 nM)?
Answer: 85.58%

Question: What about the HEPG2 cell viability (HepG2 cells; 400 nM) of the same compound?
Answer: 82.62%

Question: And the “inhibitory rate on HepG2 cells compared with positive drugs” value (HepG2 cells; at any concentration)?
Answer: lower than that of PF-07321332 and S-217622
